Assay results reported in patent publication EP0213108A2, “Pharmaceutical preparation containing an antihypotonic as the active agent” (Burghart, Kurt, Dr., priority 1985, dated 1987).
Where a name gives a salt, the structure may show the parent alone.

Assay: Pulse and systolic/diastolic blood pressure over time after sublingual aerosol or oral administration
Format: in vivo
Details: hydrochloride, oral
Protocol: Die raschere Wirksamkeit der erfindungsgemäßen pharmazeutischen Zubereitung relativ zu einer konventionellen Zubereitung wird nachfolgen an Hand eine Ausführungsbeispieles näher erläutert.
In einer alkoholischen Lösung wurden hiebei unter Verwendung von Trichlorfluorkohlenwasserstoff als Treibgas 2,5 mg 1-(3'--Hydroxyphenyl)-2-aminoäthanol als Aerosol sublingual verabreicht. In der nachfolgenden Tabelle I sind unter A die Vergleichswerte für den systolischen und den diastolischen Druck über die Zeit bei Versprühen eines Placebos, unter B die Werte für den systolischen und den diastolischen Druck über die Zeit bei Verabreichung von 2,5 mg Base als Aerosol und unter C die systolischen und diastolischen Druckwerte bei Verabreichung der gleichen Wirksubstanz als Hydrochlorid und oral über die Zeit aufgetragen, wobei mit dem Zeitpunkt 0 Referenzwerte vorangestellt sind. Aus Tabelle B ist hiebei der rasche diastolische Druckanstieg bei sublingualer Verabreichung als Aerosol ersichtlich, wohingegen aus Tabelle C eine Steigerung des diastolischen Drucks frühestens nach Ablauf von 15 min entnommen werden kann.

Compound: NCC(O)c1cccc(O)c1 (stereo not shown) [C, 1-(3'-Hydroxyphenyl)-2-aminoäthanol-hydrochlorid]
- Steigerung des diastolischen Drucks (time of onset): ≥ 15 min
- Diastole (1'): 8,53 kPa
- Puls (1'): 64 min⁻¹
- Systole (1'): 14,40 kPa
- Diastole (3'): 8,67 kPa
- Puls (3'): 66 min⁻¹
- Systole (3'): 14,00 kPa
- Diastole (5'): 8,53 kPa
- Puls (5'): 71 min⁻¹
- Systole (5'): 14,27 kPa
- Diastole (7'): 8,53 kPa
- Puls (7'): 68 min⁻¹
- Systole (7'): 14,40 kPa
- Diastole (10'): 8,80 kPa
- Puls (10'): 66 min⁻¹
- Systole (10'): 14,67 kPa
- Diastole (12'): 8,80 kPa
- Puls (12'): 68 min⁻¹
- Systole (12'): 13,87 kPa
- Diastole (15'): 8,67 kPa
- Puls (15'): 77 min⁻¹
- Systole (15'): 14,40 kPa
- Diastole (20'): 9,33 kPa
- Puls (20'): 52 min⁻¹
- Systole (20'): 14,93 kPa
- Diastole (25'): 8,80 kPa
- Puls (25'): 67 min⁻¹
- Systole (25'): 13,73 kPa
- Diastole (30'): 9,60 kPa
- Puls (30'): 69 min⁻¹
- Systole (30'): 14,27 kPa
